Experimental data: patent US20230150952A1, “TYPE 2 RYANODINE RECEPTOR ACTIVITY INHIBITOR” (JUNTENDO EDUCATIONAL FOUNDATION, priority 2020, published 2023)

Assays:
[1] = molecular target: type 2 ryanodine receptor (Mus musculus, UniProt E9Q401); assay: type 2 ryanodine receptor activity inhibitory effect: endoplasmic reticulum Ca2+ (R-CEPIA1er fluorescence) in RyR-expressing HEK293 cells; type: cell-based; details: final concentration 10^-9 to 10^-4 M; Hill equation fit; ER Ca2+ fluorescence in HEK293 cells
Procedure: The EC50 value of each of the compounds shown in Table 13 with respect to the type 2 ryanodine receptor activity inhibitory effect, was measured in accordance with the following procedure.
cDNA of RyR2 was cloned from the heart muscle of a mouse by a PCR method and introduced into an expression vector (pcDNA5/FRT/TO) for Flp-In T-REX having hygromycin resistance. The vector is a tetracycline-inducible expression (Tet-On) vector and induces expression of RyR in the presence of doxycycline.
Also, R-CEPIA1er described in Nat. Commun., 2014, 5: 4153 was introduced into a neomycin resistant expression vector, pCMV/myc/ER. This vector constantly expresses R-CEPIA1er.
As HEK293 cells, Flp-In T-REX 293 cells corresponding to the Tet-On inducible system were prepared. The cells were cultured in a CO2 incubator at 37° C.
(§1) A pathogenic mutant-type RyR gene was introduced into Flp-In T-REX 293 cells by a lipofection method. The cells were cultured in a medium containing hygromycin for 10 to 14 days to establish a pathogenic mutant RyR stably expressing strain. Into the pathogenic mutant RyR stably expressing strain, an R-CEPIA1er expression vector was introduced by a lipofection method. The strain was cultured in a medium containing G418 to establish a stable dual expression strain expressing a pathogenic mutant-type RyR gene and R-CEPIA1er.
as §1, with “A wild-type” for “A pathogenic mutant-type”, “a” for “a pathogenic mutant”, “the” for “the pathogenic mutant”, “a wild-type” for “a pathogenic mutant-type”
The cultured cells expressing a pathogenic mutant RyR and R-CEPIA1er and the cultured cells expressing wild type RyR and R-CEPIA1er were separately cultured in plastic dishes at 37° C. for 24 hours. Then, the medium was exchanged with a medium containing doxycycline and the cells were further cultured for 24 hours. Fluorescence measurement was carried out by use of FlexStation. R-CEPIA1er was excited at 560 nm to acquire fluorescence at 610 nm. Fluorescence was acquired every 10 seconds for 300 seconds. The compounds shown in Table 13 each were added 60 seconds after initiation, and Ca^2+ concentration in the fluorescent endoplasmic reticulum was measured.
Inhibitory effects of the compounds on type 2 ryanodine receptor activity shown in Table 13 each were measured in the range of a final concentration of 10^−9 to 10^−4 M by the methods above. Based on the measurement results, a dose-response curve approximating the Hill equation was obtained by the least squares method. In this manner, EC50 values were calculated.

[2] = tested on: mouse having RyR2 I4093V mutation; assay: electrocardiogram of RyR2 mutation-harboring mouse before and after intraperitoneal administration; type: in vivo; details: for occurrence of arrhythmia (ratio of time when arrhythmia occurs): 5-15 minutes after administration, FIG. 2
Text: In Riken BRC, male mice administered with N-ethyl-N-nitrosourea (ENU) were crossed with normal wild type females to obtain child mice (First generation: G1). These G1 mice were subjected to systematic phenotypic screening. […] As a result, a mouse having RyR2 I4093V mutation (RyR2 c.12277A>G (NM_023868.2) p.I4093V (NP_076357.2)) was found. The mouse was backcrossed with a normal wild type mouse (8 generations or more). As a result, mice conceivably having a mutation of RyR2 I4093V alone were obtained.
Compound 57 shown in Table 10 was dissolved in saline (0.9% aqueous NaCl solution) to prepare a 0.03-0.1 mg/mL solution containing compound 57. • (3) Measurement of Electrocardiogram of RyR2 Mutation-Harboring Mouse and Administration of Drug
The aforementioned mutant mice of 4-5 months old were subjected to anesthesia induction with 2% isoflurane. While maintaining the anesthetic state with 1% isoflurane, electrodes for electrocardiogram were attached to four limbs and electrocardiographical monitoring was continuously carried out. Before drug administration, electrocardiographical monitoring was carried out for 10 minutes. Then, the solution containing compound 57 prepared above was intraperitoneally injected so as to have a concentration of 0.3 mg/kg or 1 mg/kg. The electrocardiogram was recorded for further 15 minutes.
The time during which successive bigeminal pulse, trigeminal pulse or ventricular tachycardia (regarded as arrhythmia) occurred during 5-15 minutes after administration of compound 57, were summed up per individual and the ratio of time when arrhythmia occurs was obtained.

type 2 ryanodine receptor, sequence (E9Q401 whole entry): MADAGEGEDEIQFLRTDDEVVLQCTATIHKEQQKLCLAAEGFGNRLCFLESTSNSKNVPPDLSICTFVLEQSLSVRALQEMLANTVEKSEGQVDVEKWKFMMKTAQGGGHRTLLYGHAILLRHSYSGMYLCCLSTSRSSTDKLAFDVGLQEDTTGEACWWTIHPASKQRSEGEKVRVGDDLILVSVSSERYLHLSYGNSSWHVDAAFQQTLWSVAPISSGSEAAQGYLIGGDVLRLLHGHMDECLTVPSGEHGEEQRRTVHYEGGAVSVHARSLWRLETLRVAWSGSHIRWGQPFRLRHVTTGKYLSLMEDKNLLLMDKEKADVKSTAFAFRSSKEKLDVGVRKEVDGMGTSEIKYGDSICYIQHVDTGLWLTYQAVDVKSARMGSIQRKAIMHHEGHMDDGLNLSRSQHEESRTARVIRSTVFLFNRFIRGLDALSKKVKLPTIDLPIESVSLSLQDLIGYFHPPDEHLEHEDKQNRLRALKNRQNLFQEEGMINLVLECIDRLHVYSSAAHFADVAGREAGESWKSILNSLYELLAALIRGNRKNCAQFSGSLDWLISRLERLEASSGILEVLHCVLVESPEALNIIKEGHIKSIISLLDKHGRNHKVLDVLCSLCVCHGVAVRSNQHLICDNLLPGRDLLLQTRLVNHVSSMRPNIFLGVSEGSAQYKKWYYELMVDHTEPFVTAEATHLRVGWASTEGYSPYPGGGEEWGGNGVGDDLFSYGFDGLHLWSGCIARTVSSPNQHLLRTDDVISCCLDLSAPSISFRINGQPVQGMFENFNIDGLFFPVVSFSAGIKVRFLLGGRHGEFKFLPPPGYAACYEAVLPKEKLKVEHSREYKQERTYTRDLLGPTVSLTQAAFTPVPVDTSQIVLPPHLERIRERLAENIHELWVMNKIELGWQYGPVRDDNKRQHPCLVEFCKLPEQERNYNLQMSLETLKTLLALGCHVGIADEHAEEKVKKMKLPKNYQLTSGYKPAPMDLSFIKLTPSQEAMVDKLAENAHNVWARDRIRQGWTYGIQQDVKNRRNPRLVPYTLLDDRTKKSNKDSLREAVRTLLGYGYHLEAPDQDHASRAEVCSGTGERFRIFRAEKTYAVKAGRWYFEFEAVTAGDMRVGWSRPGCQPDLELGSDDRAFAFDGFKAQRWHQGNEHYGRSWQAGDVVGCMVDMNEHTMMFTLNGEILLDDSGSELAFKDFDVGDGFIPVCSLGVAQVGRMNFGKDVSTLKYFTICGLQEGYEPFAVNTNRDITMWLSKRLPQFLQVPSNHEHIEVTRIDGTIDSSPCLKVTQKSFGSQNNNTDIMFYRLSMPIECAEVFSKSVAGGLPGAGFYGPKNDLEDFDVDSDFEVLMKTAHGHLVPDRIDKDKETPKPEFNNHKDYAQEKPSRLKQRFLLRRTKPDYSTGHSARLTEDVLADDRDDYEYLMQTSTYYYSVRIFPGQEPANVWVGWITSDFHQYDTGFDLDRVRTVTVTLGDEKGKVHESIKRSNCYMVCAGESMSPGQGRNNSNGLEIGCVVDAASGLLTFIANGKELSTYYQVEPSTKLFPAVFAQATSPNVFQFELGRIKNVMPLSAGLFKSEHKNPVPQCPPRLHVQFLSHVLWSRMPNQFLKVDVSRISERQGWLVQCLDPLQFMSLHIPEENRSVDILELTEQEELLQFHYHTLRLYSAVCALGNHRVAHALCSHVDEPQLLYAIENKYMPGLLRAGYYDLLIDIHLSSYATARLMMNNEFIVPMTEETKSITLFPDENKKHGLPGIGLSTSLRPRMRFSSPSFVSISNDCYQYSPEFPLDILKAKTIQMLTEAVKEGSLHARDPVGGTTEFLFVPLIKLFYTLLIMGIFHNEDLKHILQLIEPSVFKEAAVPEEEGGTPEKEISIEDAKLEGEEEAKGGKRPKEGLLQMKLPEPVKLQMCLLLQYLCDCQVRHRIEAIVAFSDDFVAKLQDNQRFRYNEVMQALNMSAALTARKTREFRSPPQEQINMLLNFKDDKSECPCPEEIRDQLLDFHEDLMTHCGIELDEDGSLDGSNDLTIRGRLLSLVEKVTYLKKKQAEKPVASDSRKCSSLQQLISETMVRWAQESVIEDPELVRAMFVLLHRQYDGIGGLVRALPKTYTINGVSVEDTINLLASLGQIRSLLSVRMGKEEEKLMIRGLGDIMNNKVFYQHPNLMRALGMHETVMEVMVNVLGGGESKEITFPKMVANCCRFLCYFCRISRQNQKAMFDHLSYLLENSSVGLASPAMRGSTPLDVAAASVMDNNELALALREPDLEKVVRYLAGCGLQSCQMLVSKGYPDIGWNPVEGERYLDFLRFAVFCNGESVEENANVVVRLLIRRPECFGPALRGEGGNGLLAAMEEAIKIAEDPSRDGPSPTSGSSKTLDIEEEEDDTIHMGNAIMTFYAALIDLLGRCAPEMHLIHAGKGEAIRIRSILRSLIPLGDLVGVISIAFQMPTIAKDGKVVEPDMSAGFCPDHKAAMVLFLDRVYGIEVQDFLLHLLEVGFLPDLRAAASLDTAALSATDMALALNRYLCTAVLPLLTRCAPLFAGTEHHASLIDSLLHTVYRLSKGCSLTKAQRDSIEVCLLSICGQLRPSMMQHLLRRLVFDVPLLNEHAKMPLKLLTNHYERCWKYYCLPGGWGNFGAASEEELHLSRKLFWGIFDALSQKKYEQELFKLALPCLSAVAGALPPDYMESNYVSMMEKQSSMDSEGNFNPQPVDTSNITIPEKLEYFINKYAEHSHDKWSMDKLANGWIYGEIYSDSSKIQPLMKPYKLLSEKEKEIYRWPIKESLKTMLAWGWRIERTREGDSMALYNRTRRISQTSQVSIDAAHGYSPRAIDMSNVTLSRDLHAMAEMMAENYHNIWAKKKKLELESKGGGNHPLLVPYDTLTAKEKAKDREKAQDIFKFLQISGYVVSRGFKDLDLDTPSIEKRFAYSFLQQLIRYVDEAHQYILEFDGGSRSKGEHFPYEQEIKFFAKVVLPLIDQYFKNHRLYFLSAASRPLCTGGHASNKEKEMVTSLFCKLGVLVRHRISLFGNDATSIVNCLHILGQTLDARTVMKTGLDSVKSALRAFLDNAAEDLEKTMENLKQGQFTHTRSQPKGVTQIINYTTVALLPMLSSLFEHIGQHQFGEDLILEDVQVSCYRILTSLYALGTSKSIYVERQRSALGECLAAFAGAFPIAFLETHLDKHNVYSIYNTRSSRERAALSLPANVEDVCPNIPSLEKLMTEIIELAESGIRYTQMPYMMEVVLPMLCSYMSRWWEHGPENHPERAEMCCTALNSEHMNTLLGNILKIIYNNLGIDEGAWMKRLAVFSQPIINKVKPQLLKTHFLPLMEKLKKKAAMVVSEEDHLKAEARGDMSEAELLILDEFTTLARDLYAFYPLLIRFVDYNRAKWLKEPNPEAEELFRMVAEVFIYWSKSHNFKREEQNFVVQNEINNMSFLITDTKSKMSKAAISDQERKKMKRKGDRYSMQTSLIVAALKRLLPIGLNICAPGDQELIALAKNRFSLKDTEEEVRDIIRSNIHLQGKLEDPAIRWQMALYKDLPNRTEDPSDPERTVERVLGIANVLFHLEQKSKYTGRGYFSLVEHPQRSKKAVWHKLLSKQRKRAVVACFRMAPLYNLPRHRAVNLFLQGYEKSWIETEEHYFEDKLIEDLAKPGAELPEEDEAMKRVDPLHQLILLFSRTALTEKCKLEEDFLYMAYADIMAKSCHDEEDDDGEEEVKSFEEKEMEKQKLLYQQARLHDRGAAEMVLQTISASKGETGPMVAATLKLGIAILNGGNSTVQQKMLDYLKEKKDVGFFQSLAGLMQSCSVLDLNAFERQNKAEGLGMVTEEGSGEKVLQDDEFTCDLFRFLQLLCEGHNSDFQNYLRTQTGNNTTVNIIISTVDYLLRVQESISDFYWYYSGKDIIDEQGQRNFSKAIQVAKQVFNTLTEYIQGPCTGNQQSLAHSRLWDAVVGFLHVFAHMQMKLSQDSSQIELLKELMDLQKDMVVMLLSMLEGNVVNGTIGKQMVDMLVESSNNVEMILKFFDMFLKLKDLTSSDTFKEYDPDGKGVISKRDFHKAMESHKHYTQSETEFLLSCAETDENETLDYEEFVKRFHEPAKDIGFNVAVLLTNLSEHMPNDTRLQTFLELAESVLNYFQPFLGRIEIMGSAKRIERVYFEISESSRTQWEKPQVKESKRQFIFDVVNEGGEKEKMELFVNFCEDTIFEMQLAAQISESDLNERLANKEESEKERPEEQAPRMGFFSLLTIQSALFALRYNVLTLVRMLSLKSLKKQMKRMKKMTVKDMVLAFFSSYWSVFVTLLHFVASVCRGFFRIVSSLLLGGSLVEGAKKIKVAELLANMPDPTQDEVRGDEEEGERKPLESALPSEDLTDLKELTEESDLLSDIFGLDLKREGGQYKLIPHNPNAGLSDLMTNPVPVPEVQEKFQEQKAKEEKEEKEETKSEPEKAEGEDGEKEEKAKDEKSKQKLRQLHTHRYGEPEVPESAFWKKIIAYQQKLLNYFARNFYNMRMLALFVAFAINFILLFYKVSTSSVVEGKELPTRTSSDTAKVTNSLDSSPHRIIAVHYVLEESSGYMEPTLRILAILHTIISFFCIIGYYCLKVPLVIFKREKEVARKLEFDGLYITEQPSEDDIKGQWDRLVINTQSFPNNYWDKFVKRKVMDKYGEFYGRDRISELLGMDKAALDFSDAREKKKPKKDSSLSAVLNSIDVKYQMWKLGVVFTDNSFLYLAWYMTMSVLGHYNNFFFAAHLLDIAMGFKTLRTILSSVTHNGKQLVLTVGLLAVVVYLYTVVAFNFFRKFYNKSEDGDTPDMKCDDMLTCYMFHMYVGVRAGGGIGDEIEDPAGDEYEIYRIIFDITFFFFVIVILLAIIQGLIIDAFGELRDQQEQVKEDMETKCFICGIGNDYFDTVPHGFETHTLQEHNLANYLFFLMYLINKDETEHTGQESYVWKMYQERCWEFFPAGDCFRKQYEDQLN

| Structure (SMILES) | EC50 [1] | further results |
| --- | --- | --- |
| CN(C(=O)Cn1nnc(-c2ccccc2)n1)c1ccccc1 [Compound 35] | 676 nM | – |
| COc1cccc(-c2nnn(CC(=O)N(C)c3ccccc3)n2)c1 [Compound 46] | 147 nM | – |
| COc1ccc(-c2nnn(CC(=O)N(C)c3ccccc3)n2)cc1 [Compound 47] | 1250 nM | – |
| COc1ccc(N(C)C(=O)Cn2nnc(-c3cccc(OC)c3)n2)cc1 [Compound 48] | 43 nM | – |
| COc1ccc(N(C)C(=O)Cn2nnc(-c3cccc(F)c3)n2)cc1 [Compound 50] | 36 nM | – |
| CN(C(=O)Cn1nnc(-c2cccc(F)c2)n1)c1ccc(F)cc1 [Compound 51] | 49 nM | – |
| COc1cccc(-c2nnn(CC(=O)N(C)c3ccc(F)c(OC)c3)n2)c1 [Compound 53] | 51 nM | – |
| COc1cccc(-c2nnn(CC(=O)N(C)c3ccc4c(c3)OCO4)n2)c1 [Compound 54] | 48 nM | – |
| CCN(C(=O)Cn1nnc(-c2ccccc2)n1)c1ccccc1 [Compound 58] | 5460 nM | – |
| CCN(C(=O)Cn1nnc(-c2ccccc2)n1)c1ccc(OC)cc1 [Compound 59] | 1360 nM | – |
| CCN(C(=O)Cn1nnc(-c2ccccc2)n1)c1ccc(F)cc1 [Compound 60] | 768 nM | – |
| CCN(C(=O)Cn1nnc(-c2ccc(OC)cc2)n1)c1ccc(OC)cc1 [Compound 62] | 2680 nM | – |
| COc1ccc(N(C)C(=S)Cn2nnc(-c3cccc(OC)c3)n2)cc1 [Compound 67] | 41 nM | – |
| COc1cccc(-c2nnn(CC(=S)N(C)c3ccc(F)cc3)n2)c1 [Compound 68] | 31 nM | – |
| CN(C(=S)Cn1nnc(-c2cccc(F)c2)n1)c1ccc(F)cc1 [Compound 70] | 33 nM | – |

Further compounds by falling EC50 [1], results first:

| EC50 [1] | Structure (SMILES) | further results |
| --- | --- | --- |
| 44200 nM | CCN(C(=O)Cn1nnc(-c2ccccc2)n1)c1ccc(OC(F)(F)F)cc1 [Compound 61] | – |
| 39500 nM | CCCN(C(=O)Cn1nnc(-c2ccccc2)n1)c1ccccc1 [Compound 66] | – |
| 8310 nM | COc1cccc(N(C)C(=O)Cn2nnc(-c3ccccc3)n2)c1 [Compound 40] | – |
| 3370 nM | COc1ccccc1-c1nnn(CC(=O)N(C)c2ccccc2)n1 [Compound 45] | – |
| 2770 nM | Cc1ccc(N(C)C(=O)Cn2nnc(-c3ccccc3)n2)cc1 [Compound 38] | – |
| 1050 nM | CCN(C(=O)Cn1nnc(-c2ccc(OC(F)(F)F)cc2)n1)c1ccc(F)cc1 [Compound 63] | – |
| 606 nM | Cc1cccc(N(C)C(=O)Cn2nnc(-c3ccccc3)n2)c1 [Compound 37] | – |
| 154 nM | COc1ccc(N(C)C(=O)Cn2nnc(-c3ccccc3)n2)cc1 [Compound 41] | – |
| 44 nM | COc1cccc(-c2nnn(CC(=O)N(C)c3ccc(F)cc3)n2)c1 [Compound 49] | – |
| 39 nM | COc1ccc(N(C)C(=S)Cn2nnc(-c3cccc(F)c3)n2)cc1 [Compound 69] | – |
| 15 nM | CN(C(=O)Cn1nnc(-c2cc(F)cc(F)c2)n1)c1ccc(F)cc1 [Compound 57] | occurrence of arrhythmia (ratio of time when arrhythmia occurs) ([2]; 0.3 mg/kg intraperitoneal): low; ECG (bidirectional ventricular tachycardia before administration) ([2]; 0.3 mg/kg intraperitoneal, RyR2 I4093V mice, FIG. 1): went back to normal; occurrence of arrhythmia (ratio of time when arrhythmia occurs) ([2]; 1 mg/kg intraperitoneal): low |
